Assay: Cytotoxicity against Mus musculus (mouse) EAC cells assessed as dead cell at ED25 ug/cm'3 after 2 hr by trypan blue assay
Format: functional, Ehrlich
Settings: not given
`Nc1c(C(=O)c2cc3ccccc3oc2=O)sc(Nc2ccccc2)c1C(=O)Nc1nc(-c2cc3ccccc3oc2=O)cs1` gave an Activity of 1.7%. In the case of `N#C/C(=C1/SC=C(c2cc3ccccc3oc2=O)N1c1ccccc1)c1nc2ccccc2s1`, the Activity is reported as 1.5%. For `Nc1c(C(=O)c2cc3ccccc3oc2=O)sc(Nc2ccccc2)c1C(=O)N1NC(=O)C2C3c4ccccc4C(c4ccccc43)C2C1=O` (stereo not drawn), the Activity was 1.6%. `Nc1c(C(=O)c2cc3ccccc3oc2=O)sc(Nc2ccccc2)c1-c1nc2ccccc2[nH]1` gave an Activity of 1.4%. In the case of `N#C/C(C(=O)N1NC(=O)C2C3c4ccccc4C(c4ccccc43)C2C1=O)=C1/SC=C(c2cc3ccccc3oc2=O)N1c1ccccc1` (stereo not drawn), the Activity is reported as 1.1%. With `N=c1oc2ccccc2cc1C(=O)Nc1nc(-c2cc3ccccc3oc2=O)cs1` the Activity was 1.3%. Compound `N#C/C(C(=O)Nc1nc(-c2cc3ccccc3oc2=O)cs1)=C(\Nc1ccccc1)SCC(=O)c1cc2ccccc2oc1=O` has an Activity of 1.5%. `Nc1c(C(=O)c2cc3ccccc3oc2=O)sc(Nc2ccccc2)c1-c1nc2ccccc2s1` showed an Activity of 1.6%. Work on `O=c1[nH]cc(F)c(=O)[nH]1` [FLUOROURACIL] yielded an Activity of 37%. In the case of `N#C/C(C(=O)Nc1nc(-c2cc3ccccc3oc2=O)cs1)=C1/SC(=O)CN1c1ccccc1`, the Activity is reported as 1.6%. For `N#CCC(=O)Nc1nc(-c2cc3ccccc3oc2=O)cs1`, the Activity was 1.8%.

Assay: Cytotoxicity against Mus musculus (mouse) EAC cells assessed as dead cell at ED100 ug/cm'3 after 2 hr by trypan blue assay
Format: functional, Ehrlich
Settings: not given
`Nc1c(C(=O)c2cc3ccccc3oc2=O)sc(Nc2ccccc2)c1C(=O)Nc1nc(-c2cc3ccccc3oc2=O)cs1` gave an Activity of 7.1%. `N#C/C(=C1/SC=C(c2cc3ccccc3oc2=O)N1c1ccccc1)c1nc2ccccc2s1` showed an Activity of 5.7%. For `Nc1c(C(=O)c2cc3ccccc3oc2=O)sc(Nc2ccccc2)c1C(=O)N1NC(=O)C2C3c4ccccc4C(c4ccccc43)C2C1=O` (stereo not drawn), the Activity was 6.1%. In the case of `Nc1c(C(=O)c2cc3ccccc3oc2=O)sc(Nc2ccccc2)c1-c1nc2ccccc2[nH]1`, the Activity is reported as 5.6%. `N#C/C(C(=O)N1NC(=O)C2C3c4ccccc4C(c4ccccc43)C2C1=O)=C1/SC=C(c2cc3ccccc3oc2=O)N1c1ccccc1` (stereo not drawn) showed an Activity of 5.4%. In the case of `N=c1oc2ccccc2cc1C(=O)Nc1nc(-c2cc3ccccc3oc2=O)cs1`, the Activity is reported as 4.9%. For `N#C/C(C(=O)Nc1nc(-c2cc3ccccc3oc2=O)cs1)=C(\Nc1ccccc1)SCC(=O)c1cc2ccccc2oc1=O`, the Activity was 6.8%. For `Nc1c(C(=O)c2cc3ccccc3oc2=O)sc(Nc2ccccc2)c1-c1nc2ccccc2s1`, the Activity was 5.7%. Compound `O=c1[nH]cc(F)c(=O)[nH]1` [FLUOROURACIL] has an Activity of 93%. Compound `N#C/C(C(=O)Nc1nc(-c2cc3ccccc3oc2=O)cs1)=C1/SC(=O)CN1c1ccccc1` has an Activity of 7%. `N#CCC(=O)Nc1nc(-c2cc3ccccc3oc2=O)cs1` showed an Activity of 8%.

Assay: Cytotoxicity against Mus musculus (mouse) EAC cells assessed as dead cell at ED50 ug/cm'3 after 2 hr by trypan blue assay
Format: functional, Ehrlich
Settings: not given
`Nc1c(C(=O)c2cc3ccccc3oc2=O)sc(Nc2ccccc2)c1C(=O)Nc1nc(-c2cc3ccccc3oc2=O)cs1` gave an Activity of 3%. Work on `N#C/C(=C1/SC=C(c2cc3ccccc3oc2=O)N1c1ccccc1)c1nc2ccccc2s1` yielded an Activity of 3%. In the case of `Nc1c(C(=O)c2cc3ccccc3oc2=O)sc(Nc2ccccc2)c1C(=O)N1NC(=O)C2C3c4ccccc4C(c4ccccc43)C2C1=O` (stereo not drawn), the Activity is reported as 3%. In the case of `Nc1c(C(=O)c2cc3ccccc3oc2=O)sc(Nc2ccccc2)c1-c1nc2ccccc2[nH]1`, the Activity is reported as 2.6%. `N#C/C(C(=O)N1NC(=O)C2C3c4ccccc4C(c4ccccc43)C2C1=O)=C1/SC=C(c2cc3ccccc3oc2=O)N1c1ccccc1` (stereo not drawn) gave an Activity of 2.6%. `N=c1oc2ccccc2cc1C(=O)Nc1nc(-c2cc3ccccc3oc2=O)cs1` showed an Activity of 2.1%. Work on `N#C/C(C(=O)Nc1nc(-c2cc3ccccc3oc2=O)cs1)=C(\Nc1ccccc1)SCC(=O)c1cc2ccccc2oc1=O` yielded an Activity of 3.2%. Work on `Nc1c(C(=O)c2cc3ccccc3oc2=O)sc(Nc2ccccc2)c1-c1nc2ccccc2s1` yielded an Activity of 2.9%. Compound `O=c1[nH]cc(F)c(=O)[nH]1` [FLUOROURACIL] has an Activity of 58%. `N#C/C(C(=O)Nc1nc(-c2cc3ccccc3oc2=O)cs1)=C1/SC(=O)CN1c1ccccc1` showed an Activity of 3.1%. `N#CCC(=O)Nc1nc(-c2cc3ccccc3oc2=O)cs1` gave an Activity of 3.8%.

Assay: Antioxidant activity assessed as inhibition of ABTS free radical
Format: functional
Set-up: concentration or dose not given beside the values
Settings: dose or concentration not given here
`Nc1c(C(=O)c2cc3ccccc3oc2=O)sc(Nc2ccccc2)c1C(=O)Nc1nc(-c2cc3ccccc3oc2=O)cs1` gave an inhibition of 35.4%. `Nc1c(C(=O)c2cc3ccccc3oc2=O)sc(S)c1-c1nc2ccccc2s1` showed an inhibition of 75.6%. In the case of `N#C/C(=C1/SC=C(c2cc3ccccc3oc2=O)N1c1ccccc1)c1nc2ccccc2s1`, the inhibition is reported as 4.15%. `Nc1c(C(=O)c2cc3ccccc3oc2=O)sc(Nc2ccccc2)c1C(=O)N1NC(=O)C2C3c4ccccc4C(c4ccccc43)C2C1=O` (stereo not drawn) showed an inhibition of 13.7%. Compound `Nc1c(C(=O)c2cc3ccccc3oc2=O)sc(Nc2ccccc2)c1-c1nc2ccccc2[nH]1` has an inhibition of 0.19%. Compound `N#C/C(C(=O)N1NC(=O)C2C3c4ccccc4C(c4ccccc43)C2C1=O)=C1/SC=C(c2cc3ccccc3oc2=O)N1c1ccccc1` (stereo not drawn) has an inhibition of 5.74%. With `N=c1oc2ccccc2cc1C(=O)Nc1nc(-c2cc3ccccc3oc2=O)cs1` the inhibition was 61.4%. With `N#C/C(C(=O)Nc1nc(-c2cc3ccccc3oc2=O)cs1)=C(\Nc1ccccc1)SCC(=O)c1cc2ccccc2oc1=O` the inhibition was 23.8%. With `O=C1O[C@H]([C@@H](O)CO)C(O)=C1O` the inhibition was 84%. Compound `CC(=O)c1cc2ccccc2oc1=O` has an inhibition of 63.6%. `Nc1c(C(=O)c2cc3ccccc3oc2=O)sc(Nc2ccccc2)c1-c1nc2ccccc2s1` gave an inhibition of 5.94%. With `O=C(CBr)c1cc2ccccc2oc1=O` the inhibition was 50.2%. Work on `Nc1nc(-c2cc3ccccc3oc2=O)cs1` yielded an inhibition of 74.3%. For `N#C/C(C(=O)Nc1nc(-c2cc3ccccc3oc2=O)cs1)=C1/SC(=O)CN1c1ccccc1`, the inhibition was 28.9%. `N#CCC(=O)Nc1nc(-c2cc3ccccc3oc2=O)cs1` showed an inhibition of 70.3%.
